Counter-ions that a name gives are not always drawn. Values belong to the molecule of their own block, whether it stands above or below them.
Experiments:
experimental TBI = conditions: literature: WO 2004/084906, Terpolilli et al. 2009; cited from earlier work
[1] = Stability of reconstituted solution of VAS203 in 50 mL PP syringe at room temperature; format: physicochemical; conditions: for Further related substances, each / Further related substances, total / Purity (HPLC) (6R)-4-Amino-5,6,7,8-tetrahydro-L-biopterin / Purity (HPLC) (6S)-4-Amino-5,6,7,8-tetrahydro-L-biopterin / Related substances (HPLC) A: 4-Amino-7,8-dihydro-L-biopterin / Related substances (HPLC) B: Σ (6R)- and (6S)-5,6,7,8-Tetrahydro-L-biopterin / Related substances (HPLC) C: Σ 1-[(6R)- and (6S)-2,4-Diamino-5,6,7,8-tetrahydropteridin-6-yl]propanol / Reconstituted Solution pH / Assay (HPLC) (calculated on anhydrous and chloride-free basis): PP syringe; for Reconstituted Solution pH / Assay (HPLC) (calculated on anhydrous and chloride-free basis): reconstituted in 50 mL WFI; for Assay (HPLC) (calculated on anhydrous and chloride-free basis): day-light
Method: A stability study at room temperature was carried out for the drug substance VAS203 to test for any degradation of the reconstituted solution in transparent 50 mL polypropylene (PP) syringes which are used in clinical studies. During stability testing the PP syringes were exposed to normal day-light. Solution content, purity, related substances and pH were monitored for 48 hours (initial, 6, 24, 48 hours after preparation).

[2] = Stability of VAS203 dissolved in solution buffer at pH 7.4; format: physicochemical; conditions: oxidises to 4-Amino-7,8-dihydro-L-biopterin and 4-Amino-L-biopterin
Method: At a pH of 7.4 4-Amino-(6R,S)-5,6,7,8-tetrahydro-L-biopterin dihydrochloride dihydrate (VAS203) dissolved in solution buffer is very unstable and oxidises in its two metabolites 4-Amino-7,8-dihydro-L-biopterin and 4-Amino-L-biopterin. Therefore, it is important that the VAS203 solution is prepared with degassed buffer and after preparation of the VAS203 solution the lyophilisation should be started without delay.

Compound: CC(O)C(O)C1CNc2nc(N)nc(N)c2N1 [4-Amino-5,6,7,8-tetrahydro-L-biopterin]
- Efficacy in experimental TBI (experimental TBI): effective

Compound: CC(O)C(O)C1=Nc2c(N)nc(N)nc2NC1 [4-Amino-7,8-dihydro-L-biopterin]
- Efficacy in experimental TBI (experimental TBI): effective

- Period over which reconstituted solution is stable ([1]; 50 mL PP syringe, room temperature, exposed to normal day-light): 48 h
- Further related substances, each ([1]; room temperature, 0 hours): 0.2 % area
- Further related substances, total ([1]; room temperature, 0 hours): 0.5 % area
- Purity (HPLC) (6R)-4-Amino-5,6,7,8-tetrahydro-L-biopterin ([1]; room temperature, 0 hours): 55.5 % area
- Purity (HPLC) (6S)-4-Amino-5,6,7,8-tetrahydro-L-biopterin ([1]; room temperature, 0 hours): 39.0 % area
- Related substances (HPLC) A: 4-Amino-7,8-dihydro-L-biopterin ([1]; room temperature, 0 hours): 3.3 % area
- Related substances (HPLC) B: Σ (6R)- and (6S)-5,6,7,8-Tetrahydro-L-biopterin ([1]; room temperature, 0 hours): 0.6 % area
- Related substances (HPLC) C: Σ 1-[(6R)- and (6S)-2,4-Diamino-5,6,7,8-tetrahydropteridin-6-yl]propanol ([1]; room temperature, 0 hours): 1.5 % area
- Further related substances, each ([1]; room temperature, 6 hours): 0.2 % area
- Further related substances, total ([1]; room temperature, 6 hours): 0.6 % area
- Purity (HPLC) (6R)-4-Amino-5,6,7,8-tetrahydro-L-biopterin ([1]; room temperature, 6 hours): 55.4 % area
- Purity (HPLC) (6S)-4-Amino-5,6,7,8-tetrahydro-L-biopterin ([1]; room temperature, 6 hours): 38.5 % area
- Related substances (HPLC) A: 4-Amino-7,8-dihydro-L-biopterin ([1]; room temperature, 6 hours): 3.8 % area
- Related substances (HPLC) B: Σ (6R)- and (6S)-5,6,7,8-Tetrahydro-L-biopterin ([1]; room temperature, 6 hours): 0.6 % area
- Related substances (HPLC) C: Σ 1-[(6R)- and (6S)-2,4-Diamino-5,6,7,8-tetrahydropteridin-6-yl]propanol ([1]; room temperature, 6 hours): 1.6 % area
- Further related substances, each ([1]; room temperature, 24 hours): 0.2 % area
- Further related substances, total ([1]; room temperature, 24 hours): 0.6 % area
- Purity (HPLC) (6R)-4-Amino-5,6,7,8-tetrahydro-L-biopterin ([1]; room temperature, 24 hours): 55.4 % area
- Purity (HPLC) (6S)-4-Amino-5,6,7,8-tetrahydro-L-biopterin ([1]; room temperature, 24 hours): 38.4 % area
- Related substances (HPLC) A: 4-Amino-7,8-dihydro-L-biopterin ([1]; room temperature, 24 hours): 3.8 % area
- Related substances (HPLC) B: Σ (6R)- and (6S)-5,6,7,8-Tetrahydro-L-biopterin ([1]; room temperature, 24 hours): 0.6 % area
- Related substances (HPLC) C: Σ 1-[(6R)- and (6S)-2,4-Diamino-5,6,7,8-tetrahydropteridin-6-yl]propanol ([1]; room temperature, 24 hours): 1.5 % area
- Further related substances, each ([1]; room temperature, 48 hours): 0.1 % area
- Further related substances, total ([1]; room temperature, 48 hours): 0.4 % area
- Purity (HPLC) (6R)-4-Amino-5,6,7,8-tetrahydro-L-biopterin ([1]; room temperature, 48 hours): 55.5 % area
- Purity (HPLC) (6S)-4-Amino-5,6,7,8-tetrahydro-L-biopterin ([1]; room temperature, 48 hours): 38.1 % area
- Related substances (HPLC) A: 4-Amino-7,8-dihydro-L-biopterin ([1]; room temperature, 48 hours): 4.1 % area
- Related substances (HPLC) B: Σ (6R)- and (6S)-5,6,7,8-Tetrahydro-L-biopterin ([1]; room temperature, 48 hours): 0.6 % area
- Related substances (HPLC) C: Σ 1-[(6R)- and (6S)-2,4-Diamino-5,6,7,8-tetrahydropteridin-6-yl]propanol ([1]; room temperature, 48 hours): 1.5 % area
- Reconstituted Solution pH ([1]; room temperature, 0 hours): 7.1
- Reconstituted Solution pH ([1]; room temperature, 24 hours): 7.1
- Reconstituted Solution pH ([1]; room temperature, 48 hours): 7.1
- Assay (HPLC) (calculated on anhydrous and chloride-free basis) ([1]; room temperature, 0 hours): 615 mg
- Assay (HPLC) (calculated on anhydrous and chloride-free basis) ([1]; room temperature, 6 hours): 610 mg
- Assay (HPLC) (calculated on anhydrous and chloride-free basis) ([1]; room temperature, 24 hours): 621 mg
- Assay (HPLC) (calculated on anhydrous and chloride-free basis) ([1]; room temperature, 48 hours): 626 mg
- Light sensitivity ([1]; reconstituted solution, normal day-light, up to 48 hours): not observed
- Degradation products formed ([1]; reconstituted solution, room temperature, 48 hours): No degradation products were formed
- Use-by date after preparation of the solution ([1]; reduced to avoid microbiological contamination): 27 h
- Stability in solution buffer [2]: very unstable
Compound: CC(O)C(O)C1CNc2nc(N)nc(N)c2N1 [VAS203, 4-Amino-(6R,S)-5,6,7,8-tetrahydro-L-biopterin dihydrochloride dihydrate]
